Results as given in ChEMBL document CHEMBL4507270 (2021).

Assays:
[1] = target: NUAK family SNF1-like kinase 2 (Homo sapiens) (UniProt Q9H093)
[2] = system: Receptor-type tyrosine-protein kinase FLT3 (Homo sapiens), P36888 [D835V]
[3] = target: Myosin light chain kinase (Homo sapiens) (UniProt Q32MK0)
[4] = target: Bone morphogenetic protein receptor type-1A (Homo sapiens) (UniProt P36894)
[5] = target: Cyclin-dependent kinase 4 (Homo sapiens) (UniProt P11802)
[6] = target: Kappa-type opioid receptor (Homo sapiens, UniProt P41145); assay: GPCRScan assay: inhibition of KOR; set-up: radioligand conc. used [nm] 0.6 – 1.2, parental cells stable HEK
Sequence of Kappa-type opioid receptor (P41145 whole entry): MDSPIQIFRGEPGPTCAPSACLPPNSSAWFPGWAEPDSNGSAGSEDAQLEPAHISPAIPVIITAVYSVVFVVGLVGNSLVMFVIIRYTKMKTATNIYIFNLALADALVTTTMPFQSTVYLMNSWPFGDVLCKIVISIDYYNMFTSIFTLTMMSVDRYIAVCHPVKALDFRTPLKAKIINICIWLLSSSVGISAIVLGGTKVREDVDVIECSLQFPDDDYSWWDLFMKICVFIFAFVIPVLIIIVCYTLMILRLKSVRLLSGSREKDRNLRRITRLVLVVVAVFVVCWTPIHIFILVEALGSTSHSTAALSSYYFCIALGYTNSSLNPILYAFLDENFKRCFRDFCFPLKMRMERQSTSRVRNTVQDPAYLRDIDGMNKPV

[7] = target: Cyclin-dependent kinase 17 (Homo sapiens) (UniProt Q00537)
[8] = target: Interleukin-1 receptor-associated kinase 4 (Homo sapiens) (UniProt Q9NWZ3)
[9] = target: Proto-oncogene tyrosine-protein kinase receptor Ret (Homo sapiens) (UniProt P07949)
[10] = system: Epidermal growth factor receptor (Homo sapiens), P00533 [L861Q]
[11] = target: Mitogen-activated protein kinase 7 (Homo sapiens) (UniProt Q13164)
[12] = target: Calcium/calmodulin-dependent protein kinase type 1B (Homo sapiens) (UniProt Q6P2M8)
[13] = target: Serine/threonine-protein kinase DCLK1 (Homo sapiens) (UniProt O15075)
[14] = target: Calcium-dependent protein kinase 1 (Plasmodium falciparum) (UniProt P62344)
Sequence of Calcium-dependent protein kinase 1 (Plasmodium falciparum) (P62344 2-524 limits assumed): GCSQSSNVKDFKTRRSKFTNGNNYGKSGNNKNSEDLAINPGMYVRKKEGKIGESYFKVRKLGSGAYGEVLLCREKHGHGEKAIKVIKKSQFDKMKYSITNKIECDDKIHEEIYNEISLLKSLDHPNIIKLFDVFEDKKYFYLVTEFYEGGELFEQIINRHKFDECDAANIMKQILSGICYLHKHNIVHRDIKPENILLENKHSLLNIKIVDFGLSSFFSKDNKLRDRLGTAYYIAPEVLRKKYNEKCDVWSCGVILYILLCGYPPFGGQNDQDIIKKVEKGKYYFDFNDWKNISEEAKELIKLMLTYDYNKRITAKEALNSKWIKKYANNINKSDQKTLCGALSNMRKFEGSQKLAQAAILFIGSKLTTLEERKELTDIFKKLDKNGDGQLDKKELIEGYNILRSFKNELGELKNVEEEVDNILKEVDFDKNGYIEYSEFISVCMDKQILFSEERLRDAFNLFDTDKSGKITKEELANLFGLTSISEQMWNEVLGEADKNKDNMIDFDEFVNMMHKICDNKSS

[15] = target: Ribosomal protein S6 kinase alpha-2 (Homo sapiens) (UniProt Q15349)
[16] = target: Serine/threonine-protein kinase 4 (Homo sapiens) (UniProt Q13043)
[17] = target: Epidermal growth factor receptor (Homo sapiens) (UniProt P00533)
[18] = target: Serine/threonine-protein kinase 24 (Homo sapiens) (UniProt Q9Y6E0)
[19] = target: Serine/threonine-protein kinase N2 (Homo sapiens) (UniProt Q16513)
[20] = target: Mitogen-activated protein kinase kinase kinase 13 (Homo sapiens) (UniProt O43283)
[21] = target: Cyclin-dependent kinase 16 (Homo sapiens) (UniProt Q00536)
[22] = target: Serine/threonine-protein kinase Sgk3 (Homo sapiens) (UniProt Q96BR1)
Sequence of Serine/threonine-protein kinase Sgk3 (Homo sapiens) (Q96BR1 whole entry): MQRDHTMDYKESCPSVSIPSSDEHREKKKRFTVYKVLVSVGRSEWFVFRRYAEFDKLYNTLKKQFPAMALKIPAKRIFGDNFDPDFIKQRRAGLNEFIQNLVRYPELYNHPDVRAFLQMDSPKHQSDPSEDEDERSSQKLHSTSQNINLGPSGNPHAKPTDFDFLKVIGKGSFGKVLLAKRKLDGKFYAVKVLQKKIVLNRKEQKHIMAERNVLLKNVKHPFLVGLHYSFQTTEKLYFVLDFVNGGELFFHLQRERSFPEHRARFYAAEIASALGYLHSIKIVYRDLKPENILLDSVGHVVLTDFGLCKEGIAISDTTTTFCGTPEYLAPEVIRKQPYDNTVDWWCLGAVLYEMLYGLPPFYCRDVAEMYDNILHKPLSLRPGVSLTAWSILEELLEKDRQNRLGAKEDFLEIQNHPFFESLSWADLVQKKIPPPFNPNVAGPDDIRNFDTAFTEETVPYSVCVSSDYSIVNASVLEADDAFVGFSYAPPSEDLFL

[23] = system: Epidermal growth factor receptor (Homo sapiens), P00533 [UNDEFINED MUTATION]
[24] = target: Tyrosine-protein kinase HCK (Homo sapiens) (UniProt P08631)
[25] = target: Cyclin-dependent kinase-like 2 (Homo sapiens) (UniProt Q92772)
[26] = target: Tyrosine-protein kinase Yes (Homo sapiens) (UniProt P07947)
Sequence of Tyrosine-protein kinase Yes (Homo sapiens) (P07947 2-543 limits assumed): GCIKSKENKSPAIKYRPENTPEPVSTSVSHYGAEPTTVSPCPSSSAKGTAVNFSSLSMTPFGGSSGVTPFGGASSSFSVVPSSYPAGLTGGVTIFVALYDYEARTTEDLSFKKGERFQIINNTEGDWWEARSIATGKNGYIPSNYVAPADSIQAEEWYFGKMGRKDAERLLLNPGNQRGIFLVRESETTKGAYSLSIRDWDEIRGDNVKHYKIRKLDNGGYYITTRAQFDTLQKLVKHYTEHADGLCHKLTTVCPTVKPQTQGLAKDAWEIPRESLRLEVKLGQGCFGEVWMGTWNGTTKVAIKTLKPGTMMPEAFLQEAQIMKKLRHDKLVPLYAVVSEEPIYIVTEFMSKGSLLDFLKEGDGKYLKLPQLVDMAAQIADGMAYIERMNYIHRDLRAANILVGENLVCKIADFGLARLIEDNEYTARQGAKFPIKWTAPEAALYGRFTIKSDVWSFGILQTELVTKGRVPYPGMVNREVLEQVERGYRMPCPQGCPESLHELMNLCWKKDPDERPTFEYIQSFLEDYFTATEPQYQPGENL

[27] = target: Serine/threonine-protein kinase 10 (Homo sapiens, UniProt O94804)
Sequence of Serine/threonine-protein kinase 10 (O94804 whole entry, looked up): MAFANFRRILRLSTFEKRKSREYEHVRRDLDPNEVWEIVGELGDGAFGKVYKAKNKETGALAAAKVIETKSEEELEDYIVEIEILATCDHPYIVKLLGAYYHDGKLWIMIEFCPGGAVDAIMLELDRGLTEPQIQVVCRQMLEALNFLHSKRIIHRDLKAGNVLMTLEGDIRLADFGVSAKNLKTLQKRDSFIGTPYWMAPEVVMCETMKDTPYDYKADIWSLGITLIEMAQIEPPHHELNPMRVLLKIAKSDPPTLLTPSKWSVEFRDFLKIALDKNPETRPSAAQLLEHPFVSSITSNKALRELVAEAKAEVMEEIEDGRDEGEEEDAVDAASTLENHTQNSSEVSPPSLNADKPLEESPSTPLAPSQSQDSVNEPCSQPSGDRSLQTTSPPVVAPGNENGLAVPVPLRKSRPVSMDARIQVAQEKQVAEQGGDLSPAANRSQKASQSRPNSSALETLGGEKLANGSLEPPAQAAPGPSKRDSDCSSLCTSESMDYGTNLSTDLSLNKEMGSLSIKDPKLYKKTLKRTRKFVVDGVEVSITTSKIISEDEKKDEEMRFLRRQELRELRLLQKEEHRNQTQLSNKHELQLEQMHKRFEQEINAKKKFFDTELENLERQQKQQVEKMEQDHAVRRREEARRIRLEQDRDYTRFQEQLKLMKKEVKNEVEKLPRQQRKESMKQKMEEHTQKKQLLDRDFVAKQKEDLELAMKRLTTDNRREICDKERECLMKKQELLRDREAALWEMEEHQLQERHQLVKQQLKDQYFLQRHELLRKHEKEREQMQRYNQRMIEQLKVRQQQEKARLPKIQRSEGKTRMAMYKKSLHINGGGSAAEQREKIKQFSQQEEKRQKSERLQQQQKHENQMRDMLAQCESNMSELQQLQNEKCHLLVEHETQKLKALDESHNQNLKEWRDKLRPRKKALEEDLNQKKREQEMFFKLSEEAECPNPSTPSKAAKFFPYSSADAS

[28] = target: Mitogen-activated protein kinase kinase kinase 2 (Homo sapiens) (UniProt Q9Y2U5)
[29] = target: Serine/threonine-protein kinase PLK2 (Homo sapiens) (UniProt Q9NYY3)
[30] = target: Rhodopsin kinase GRK1 (Homo sapiens) (UniProt Q15835)
[31] = target: Ephrin type-A receptor 7 (Homo sapiens) (UniProt Q15375)
[32] = target: Vascular endothelial growth factor receptor 2 (Homo sapiens, UniProt P35968)
[33] = system: Phosphatidylinositol 4,5-bisphosphate 3-kinase catalytic subunit alpha isoform (Homo sapiens), P42336 [Q546K]
[34] = target: Serine/threonine-protein kinase tousled-like 2 (Homo sapiens) (UniProt Q86UE8)
[35] = target: Serine/threonine-protein kinase 25 (Homo sapiens) (UniProt O00506)
[36] = target: Mitogen-activated protein kinase kinase kinase kinase 4 (Homo sapiens) (UniProt O95819)
[37] = system: Tyrosine-protein kinase ABL1 (Homo sapiens), P00519 [Q252H]
[38] = target: Ankyrin repeat and protein kinase domain-containing protein 1 (Homo sapiens) (UniProt Q8NFD2)
[39] = target: Cyclin-dependent kinase 8 (Homo sapiens) (UniProt P49336)
[40] = system: Proto-oncogene tyrosine-protein kinase receptor Ret (Homo sapiens), P07949 [V804M]
[41] = target: Serine/threonine-protein kinase SIK3 (Homo sapiens) (UniProt Q9Y2K2)
Sequence of Serine/threonine-protein kinase SIK3 (Homo sapiens) (Q9Y2K2 whole entry, looked up, canonical isoform): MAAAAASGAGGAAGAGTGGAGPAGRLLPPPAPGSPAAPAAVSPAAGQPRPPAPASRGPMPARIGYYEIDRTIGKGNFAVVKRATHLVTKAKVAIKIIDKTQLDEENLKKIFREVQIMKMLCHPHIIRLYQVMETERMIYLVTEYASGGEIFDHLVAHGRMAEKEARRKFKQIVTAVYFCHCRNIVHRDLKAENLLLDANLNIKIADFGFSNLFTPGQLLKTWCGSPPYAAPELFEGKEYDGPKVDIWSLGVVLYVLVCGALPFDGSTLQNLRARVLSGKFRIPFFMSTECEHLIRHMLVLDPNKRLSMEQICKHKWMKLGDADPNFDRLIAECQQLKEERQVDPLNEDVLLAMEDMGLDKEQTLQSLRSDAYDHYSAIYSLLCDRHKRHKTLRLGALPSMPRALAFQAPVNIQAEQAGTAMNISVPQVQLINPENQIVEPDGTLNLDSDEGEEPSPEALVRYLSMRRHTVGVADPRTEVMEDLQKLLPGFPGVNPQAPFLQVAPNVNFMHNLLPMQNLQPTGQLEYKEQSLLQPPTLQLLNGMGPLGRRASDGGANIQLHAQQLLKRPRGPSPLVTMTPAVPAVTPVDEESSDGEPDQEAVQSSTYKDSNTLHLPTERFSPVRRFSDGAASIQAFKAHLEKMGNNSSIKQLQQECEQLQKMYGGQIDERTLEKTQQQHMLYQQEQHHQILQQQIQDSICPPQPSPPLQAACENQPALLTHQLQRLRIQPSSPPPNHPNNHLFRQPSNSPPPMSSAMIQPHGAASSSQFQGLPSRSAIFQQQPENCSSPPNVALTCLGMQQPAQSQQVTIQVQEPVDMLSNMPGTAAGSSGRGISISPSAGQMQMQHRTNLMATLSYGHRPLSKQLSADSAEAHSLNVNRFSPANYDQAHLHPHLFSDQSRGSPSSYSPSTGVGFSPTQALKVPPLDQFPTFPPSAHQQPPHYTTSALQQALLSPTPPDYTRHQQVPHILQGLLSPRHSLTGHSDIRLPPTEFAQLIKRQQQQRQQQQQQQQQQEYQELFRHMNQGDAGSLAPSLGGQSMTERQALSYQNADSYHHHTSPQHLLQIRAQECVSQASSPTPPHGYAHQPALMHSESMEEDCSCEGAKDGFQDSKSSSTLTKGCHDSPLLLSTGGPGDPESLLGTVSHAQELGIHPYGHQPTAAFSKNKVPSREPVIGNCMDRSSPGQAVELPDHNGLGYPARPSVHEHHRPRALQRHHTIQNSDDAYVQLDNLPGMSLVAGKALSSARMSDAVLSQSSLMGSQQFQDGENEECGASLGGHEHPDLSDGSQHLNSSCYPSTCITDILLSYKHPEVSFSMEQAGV

[42] = target: Casein kinase I isoform alpha-like (Homo sapiens) (UniProt Q8N752)
Sequence of Casein kinase I isoform alpha-like (Homo sapiens) (Q8N752 whole entry, canonical isoform): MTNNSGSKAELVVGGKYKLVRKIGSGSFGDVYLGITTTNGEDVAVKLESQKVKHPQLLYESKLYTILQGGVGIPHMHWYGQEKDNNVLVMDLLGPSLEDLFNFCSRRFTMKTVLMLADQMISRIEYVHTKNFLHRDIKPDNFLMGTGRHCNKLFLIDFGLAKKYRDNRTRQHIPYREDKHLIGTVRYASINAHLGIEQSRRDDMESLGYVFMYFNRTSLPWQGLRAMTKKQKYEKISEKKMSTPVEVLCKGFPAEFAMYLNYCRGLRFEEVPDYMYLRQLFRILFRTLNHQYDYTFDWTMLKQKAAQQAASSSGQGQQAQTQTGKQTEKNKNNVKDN

[43] = target: Wee1-like protein kinase (Homo sapiens) (UniProt P30291)
[44] = target: Casein kinase II subunit alpha' (Homo sapiens) (UniProt P19784)
[45] = target: Atypical kinase COQ8A, mitochondrial (Homo sapiens) (UniProt Q8NI60)
Sequence of Atypical kinase COQ8A, mitochondrial (Homo sapiens) (Q8NI60 163-647 limits assumed): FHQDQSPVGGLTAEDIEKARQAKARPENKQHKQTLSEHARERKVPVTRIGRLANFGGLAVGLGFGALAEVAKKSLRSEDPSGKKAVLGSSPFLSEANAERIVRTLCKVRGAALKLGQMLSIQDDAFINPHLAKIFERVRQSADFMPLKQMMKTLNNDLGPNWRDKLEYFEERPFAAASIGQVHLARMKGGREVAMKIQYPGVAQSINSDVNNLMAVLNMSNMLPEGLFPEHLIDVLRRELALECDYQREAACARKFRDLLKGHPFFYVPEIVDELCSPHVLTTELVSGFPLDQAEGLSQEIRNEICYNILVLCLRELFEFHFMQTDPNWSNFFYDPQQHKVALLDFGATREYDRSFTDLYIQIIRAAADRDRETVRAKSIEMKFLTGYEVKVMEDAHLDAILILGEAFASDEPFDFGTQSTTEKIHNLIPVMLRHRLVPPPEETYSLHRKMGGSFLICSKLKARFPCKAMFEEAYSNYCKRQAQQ

[46] = Compound concentration 1000.0 nM
[47] = Compound concentration 100.0 nM

Structure (SMILES): Cc1cc(NC(=O)c2cccc(S(F)(F)(F)(F)F)c2)cc(-n2ccn3nc(-c4cccnc4)cc23)c1 [BAY-309]
- residual activity [1, 46]: 100%
- residual activity [2, 46]: 100%
- residual activity [3, 46]: 100%
- residual activity [4, 46]: 94.4%
- residual activity [5, 46]: 100%
- Ki ([6]; read-out: Ki): 10000 nM
- residual activity [7, 46]: 83.8%
- residual activity [8, 46]: 98.4%
- residual activity [9, 46]: 100%
- residual activity [10, 46]: 98.2%
- residual activity [11, 46]: 90%
- residual activity [12, 46]: 100%
- residual activity [13, 46]: 66.2%
- residual activity [14, 46]: 95.1%
- residual activity [15, 46]: 100%
- residual activity [16, 46]: 100%
- residual activity [17, 46]: 100%
- residual activity [18, 46]: 100%
- residual activity [19, 46]: 100%
- residual activity [20, 46]: 100%
- residual activity [21, 46]: 100%
- residual activity [22, 46]: 72.1%
- residual activity [23, 46]: 100%
- residual activity [24, 46]: 98.7%
- residual activity [25, 46]: 100%
- residual activity [26, 46]: 100%
- residual activity [27, 46]: 26.8%
- residual activity [28, 46]: 52.7%
- residual activity [29, 46]: 100%
- residual activity [30, 46]: 50.4%
- residual activity [31, 46]: 91.2%
- residual activity [32, 46]: 68.3%
- residual activity [33, 46]: 100%
- residual activity [34, 46]: 94.3%
- residual activity [35, 46]: 59.5%
- residual activity [36, 46]: 100%
- residual activity [37, 46]: 49.2%
- residual activity [38, 46]: 100%
- residual activity [39, 46]: 86.2%
- residual activity [40, 46]: 74.2%
- residual activity [41, 46]: 100%
- residual activity [42, 46]: 100%
- residual activity [43, 46]: 100%
- residual activity [44, 46]: 100%
- residual activity [45, 46]: 82.8%

Structure (SMILES): Cc1cc(C)c(-n2ccn3nc(-c4cccnc4)cc23)cc1NC(=O)c1cc(C#N)cc(S(F)(F)(F)(F)F)c1 [BAY-826]
- residual activity [1, 47]: 86.1%
- residual activity [2, 47]: 85.2%
- residual activity [3, 47]: 100%
- residual activity [4, 47]: 97.2%
- residual activity [5, 47]: 86.2%
- Ki ([6]; read-out: Ki): 125 nM
- Ki ([6]; read-out: pKi (converted)): 112 nM
- residual activity [7, 47]: 99.3%
- residual activity [8, 47]: 100%
- residual activity [9, 47]: 82%
- residual activity [10, 47]: 91.1%
- residual activity [11, 47]: 100%
- residual activity [12, 47]: 83.6%
- residual activity [13, 47]: 73.6%
- residual activity [14, 47]: 88.9%
- residual activity [15, 47]: 65.1%
- residual activity [16, 47]: 88.5%
- residual activity [17, 47]: 85.1%
- residual activity [18, 47]: 75.9%
- residual activity [19, 47]: 100%
- residual activity [20, 47]: 97.9%
- residual activity [21, 47]: 92.5%
- residual activity [22, 47]: 81.5%
- residual activity [23, 47]: 88.5%
- residual activity [24, 47]: 72.1%
- residual activity [25, 47]: 75.6%
- residual activity [26, 47]: 70.7%
- residual activity [27, 47]: 1.8%
- residual activity [28, 47]: 86.4%
- residual activity [29, 47]: 83.3%
- residual activity [30, 47]: 71.2%
- residual activity [31, 47]: 92%
- residual activity [32, 47]: 76.2%
- residual activity [33, 47]: 100%
- residual activity [34, 47]: 100%
- residual activity [35, 47]: 79.1%
- residual activity [36, 47]: 95.1%
- residual activity [37, 47]: 31.4%
- residual activity [38, 47]: 84.5%
- residual activity [39, 47]: 76.7%
- residual activity [40, 47]: 94.5%
- residual activity [41, 47]: 75.3%
- residual activity [42, 47]: 88.4%
- residual activity [43, 47]: 100%
- residual activity [44, 47]: 82.4%
- residual activity [45, 47]: 94.5%
